Results from patent publication US7833795B2, “Assessment of cardiovascular risk using isoprostane biomarkers and COX-2 selective inhibitors” (The Trustees of the University of Pennsylvania, priority 2004, dated 2010).

How the values were obtained:
Assay type in all cases: in vivo, rat
[1] = tested on: Male Fisher 344 rats; test: Plasma protein-bound 3-nitrotyrosine (HPLC-EC)
Method: (§1) Animals and treatment protocol: Male Fisher 344 rats (260-280 g) obtained from Charles River Laboratories (Raleigh, N.C.) were used in all experiments. The animals were housed three to a cage. Autoclaved hardwood bedding was used in solid-bottom polycarbonate cages with filter tops. Animal rooms were maintained at 20-25° C. with 35-70% relative humidity with alternating 12-hour light and dark cycles. The rats had free access to deionized, reverse-osmosis-treated water and received autoclaved NIH 31 rodent chow (Zeigler Bros., Gardners, Pa.) ad libitum. For all experiments, rats were fasted overnight and then administered intraperitoneal injections of carbon tetrachloride in canola oil. Control rats received an equal volume of canola oil. Fasting continued throughout the experiment. Rats were anesthetized with Nembutal (0.1 ml/100 g body weight) and 5 ml blood was removed from the dorsal aorta proximal to its bifurcation into the common iliac arteries.
(§2) Carbon tetrachloride (CCL4) treatment: Animals from each of the three dose groups (Control-canola oil, 120 mg/kg CCl4 i.p. and 1200 mg/kg CCl4 i.p.) were investigated at three time points (2, 7, and 16 hours after CCl4 injection). Indomethacin-pretreated rats were also investigated at the same three time points, and the meclofenamic acid-pretreated rats were investigated at one time point (7 hours). Each group consisted of five rats for each analysis, except the meclofenamic acid pretreatment group which consisted of six rats. Animal treatment, sample preparation, assessment of liver histology and serum enzyme activities are described elsewhere (Kadiiska et al., 2000, Free Radic. Biol. Med. 28: 838-845; Jackson, 1989, J. Pharmacol. Exp. Ther. 250: 9-21) and were carried out at NIEHS, Research Triangle Park, N.C.
(§3) Plasma sample preparation: Blood (5 ml) was drawn through single draw Vacutainer® needles (21 Gauge) into open Vacutainer® blood collection tubes containing heparin. The tubes were gently inverted 2-3 times for mixing and immediately placed on ice. Blood was centrifuged (2,000 rpm for 10 minutes at 4° C.) no more than 30 minutes after collection, and the plasma was collected, frozen on dry ice and stored at −70° C.
Determination of tyrosine products employed a method of sample preparation wherein tyrosine analogs were enzymatically hydrolyzed from protein without the need for sample extraction, concentration or derivatization (Henley et al., 1997, Analytical Biochem. 251: 187-195). High performance liquid chromatography was applied in conjunction with coulometric electrochemical array (HPLC-EC) detection to allow ultrasensitive determination of protein-bound 3-nitrotyrosine and 3,4-dihydroxyphenylalanine (3-hydroxytyrosine) as specific in situ biomarkers of protein exposure to reactive nitrating or oxidizing species (Henley et al., 1997, Analytical Biochem. 251: 187-195). Tyrosine and derivatives were analyzed simultaneously, with practical detection limits for tyrosine, 3-nitrotyrosine, and 3,4-Dopa being 10, 50 and 2 pmol respectively, in as little as 20 μL of sample. The measurements were conducted at the Oklahoma Medical Research Foundation (OMRF), Oklahoma City, Okla.

[2] = tested on: Male Fisher 344 rats; test: Plasma methionine sulfoxidation
Method: as §1, §2, §3
Methionine sulfoxidation was measured according to Levine et al. (1996, Proc. Natl. Acad. Sci. USA 93: 15036-15040). In brief, serum samples were hydrolyzed with HCl. The methionine sulfoxide residue was converted to methionine, which represents the methionine sulfoxide level in the protein. The samples were analyzed on a Beckman Model 7300 amino acid analyzer. The methionine concentrations were measured at Weill Medical College of Cornell University, New York, N.Y., USA.

[3] = tested on: Male Fisher 344 rats; test: Comet assay of blood leucocyte DNA; conditions: CCl4 120 and 1200 mg/kg; 2, 7, 16 h
Method: as §1
Carbon tetrachloride (CCL4) treatment: Animals from each of the three dose groups (Control-canola oil, 120 mg/kg CCl4 i.p. and 1200 mg/kg CCl4 i.p.) were investigated at three time points (2, 7, and 16 hours after CCl4 injection). Indomethacin-pretreated rats were also investigated at the same three time points, and the meclofenamic acid-pretreated rats were investigated at one time point (7 hours). […]

[4] = tested on: Male Fisher 344 rats; test: Plasma free plus esterified 8-iso-PGF2α by GC/MS; conditions: for Free plus esterified 8-iso-PGF2a (by GC-MS): plasma
Method: as §1
Indomethacin pretreatment: The indomethacin regimen used has been previously shown to inhibit COX activity in rats by 90% (dose of 5 mg/kg s.c. 24 hours, 12 hours, and 2 hours prior to the injection of CCl4) (Jackson, 1989, J. Pharmacol. Exp. Ther. 250: 9-21). An additional booster dose was injected 8 hours after the last injection of CCl4 for the measurements performed 16 hours after treatment with CCl4.
Meclofenamic acid pretreatment: Meclofenamic acid was injected at a dose of 5 mg/kg i.p. 12 h and 2 h prior to the injection of CCl4.
as §2, §3
Measurement of the sum of free plus esterified 8-iso-PGF2α in plasma were performed using an improved GC/MS-based analysis for the quantitation of this isoprostane in plasma. A detailed protocol for this extraction and quantitation has been published (Parker et al., 2001, Mol. Biotechnol. 18: 105-118). Measurements of the sum of free plus esterified 8-iso-PGF2α in plasma were performed at NIEHS, Research Triangle Park, N.C.

In the case of ClC(Cl)(Cl)Cl [CCl4, Carbon tetrachloride], the “3-Nitrotyrosine, bound” value ([1]; CCl4 120 mg/kg i.p., 2 h) is reported as 0.24 µM, the “3-Nitrotyrosine, bound” value ([1]; CCl4 120 mg/kg i.p., 7 h) is reported as 0.39 µM and the “3-Nitrotyrosine, bound” value ([1]; CCl4 120 mg/kg i.p., 16 h) is reported as 0.43 µM. For the same molecule, the “3-Nitrotyrosine, bound” value ([1]; CCl4 1200 mg/kg i.p., 2 h) was 0.26 µM, the “3-Nitrotyrosine, bound” value ([1]; CCl4 1200 mg/kg i.p., 7 h) was 0.42 µM and the “3-Nitrotyrosine, bound” value ([1]; CCl4 1200 mg/kg i.p., 16 h) was 0.38 µM. For the same molecule, the Methionine sulfoxide ([2]; CCl4 120 mg/kg i.p., 2 h) was 2.3 % of total methionine, the Methionine sulfoxide ([2]; CCl4 120 mg/kg i.p., 7 h) was 1.7 % of total methionine and the Methionine sulfoxide ([2]; CCl4 120 mg/kg i.p., 16 h) was 3.1 % of total methionine. The Methionine sulfoxide ([2]; CCl4 1200 mg/kg i.p., 2 h) was 1.8 % of total methionine, the Methionine sulfoxide ([2]; CCl4 1200 mg/kg i.p., 7 h) was 1.1 % of total methionine and the Methionine sulfoxide ([2]; CCl4 1200 mg/kg i.p., 16 h) was 1.7 % of total methionine. The “Comet assay: % migrated DNA, tail length, tail moment” value [3] was “statistically significant increase only at the low dose of CCl4 at 16 hours”, the “Free plus esterified 8-iso-PGF2a (by GC-MS)” value ([4]; CCl4 120 mg/kg i.p., 2 h) was 3.07 ng/mL and the “Free plus esterified 8-iso-PGF2a (by GC-MS)” value ([4]; CCl4 120 mg/kg i.p., 7 h) was 1.79 ng/mL. The “Free plus esterified 8-iso-PGF2a (by GC-MS)” value ([4]; CCl4 120 mg/kg i.p., 16 h) was 0.93 ng/mL, the “Free plus esterified 8-iso-PGF2a (by GC-MS)” value ([4]; CCl4 1200 mg/kg i.p., 2 h) was 6.63 ng/mL and the “Free plus esterified 8-iso-PGF2a (by GC-MS)” value ([4]; CCl4 1200 mg/kg i.p., 7 h) was 4.39 ng/mL. The “Free plus esterified 8-iso-PGF2a (by GC-MS)” value ([4]; CCl4 1200 mg/kg i.p., 16 h) was 1.68 ng/mL, the “increase of free plus esterified plasma 8-iso-PGF2α” value ([4]; high dose CCl4, 2 h) was 15 fold and the “increase of free plus esterified plasma 8-iso-PGF2α” value ([4]; high dose CCl4, 7 h) was 10 fold. The “increase of free plus esterified plasma 8-iso-PGF2α” value ([4]; high dose CCl4, 16 h) was 4 fold.
